This is an account of results in patent US8569372B2, “Method for preventing or treating a disease, disorder or condition induced by retina ischemia” (priority 2011, dated 2013).

One assay has as its system RGC-5 cells. The experiment in a line: RGC-5 cell viability under H2O2 induced oxidative stress. Format: cell-based. The following applies: RGC5, then 500 μM H2O2 24 hours, H2O2 alone 42.05±6.10%, n=6, read-out: RGC-5 cell viability (control: 100%). The method, then:
The RGC-5 cell line was obtained from the American Type Culture Collection (ATCC, No. CRL-2302, Manassas, Va., USA). The RGC-5 cell line represents a lineage of neuronal precursor cells. The RGC-5 cells were maintained in Dulbecco's modified Eagle's medium (DMEM; Falcon, Becton Dickinson, N.J., U.S.A.) containing 10% fetal calf serum, 100 U/mL penicillin and 100 μg/mL streptomycin (Sigma-Aldrich) in a humidified atmosphere of 95% air and 5% CO2 at 37° C. Cell viability was evaluated by counting the cell number using a haemocytometer under an optical microscope.
In the enzyme-linked immunosorbent assay (ELISA), the cells (2.5×10^4 in each well) were plated into 96-well plates. Each well contains 200 μl of DMEM (control) without or with H2O2. Next, the cells were incubated at 37° C. for 1 day and then shifted to serum free medium for the following day. In order to stimulate oxidative stress, 500 μM H2O2 (Sigma-Aldrich 18304/k0250, St Louis, Mo., USA) was then added for 24 hours as described elsewhere. Depending on the experimental protocol, SAC or vehicle was added to some samples 15 minutes before adding H2O2.

In a further assay the test system is Thy-1 mRNA. The experiment in a line: Real-time PCR of retinal mRNA after ischaemia/reperfusion: Thy-1. Format: in vivo, Wistar rats. To be noted: 100 μM SAC pre-treatment, 24 hours after I/R; control 3.28±1.09, vehicle 0.29±0.07; n=6. As to the method: The rats (200-250 g) were anaesthetized and placed in a stereotaxic frame. The anterior chamber of one eye was cannulated with a 30-gauge needle connected to a 0.9% saline reservoir; this caused a high IOP (HIOP) of 120 mmHg for 60 minutes. Eye fundus whitening and a low ERG response confirmed induction of an ischaemic insult. A sham procedure was carried out on the controls. Drug administration involved the pre-administration (15-minute before 60-minute HIOP induced retinal ischaemia) of SAC (25, 50, 100 μM) or vehicle (saline; control). The ischemic eye of each test rat was treated with or without a single intravitreous injection of 5 μl of the test compound. […] The levels of Thy-1, HIF-1 Alpha, VEGF and MMP-9 mRNAs present in the retinas were determined using a real-time PCR technique. […] Relative quantification (a comparative method) was performed using the house keeping gene Beta-actin as the internal standard. This process allows the normalized quantification of the mRNA target (Ct) and takes into account the differences in the amount of total RNA added to each reaction (ΔCt). The relative HIF-1 Alpha/VEGF/MMP-9 expression changes were calculated as fold changes relative to the control with respect to the calibrator (ΔΔCt), which was represented by the control retina. […] The data obtained for each treatment were pooled, and a total percentage change relative to the control was calculated. […]
(In general: Real-time PCR tracks product formation cycle by cycle.)

Assay [1] deals with cholinergic amacrine cells (ChAT immunoreactivity). The experiment in a line: ChAT immunofluorescence of the retina after ischaemia/reperfusion. To be noted: 100 μM SAC pre-treatment. Format: in vivo, Wistar rats. As to the method:
The rats (200-250 g) were anaesthetized and placed in a stereotaxic frame. The anterior chamber of one eye was cannulated with a 30-gauge needle connected to a 0.9% saline reservoir; this caused a high IOP (HIOP) of 120 mmHg for 60 minutes. Eye fundus whitening and a low ERG response confirmed induction of an ischaemic insult. A sham procedure was carried out on the controls. Drug administration involved the pre-administration (15-minute before 60-minute HIOP induced retinal ischaemia) of SAC (25, 50, 100 μM) or vehicle (saline; control). The ischemic eye of each test rat was treated with or without a single intravitreous injection of 5 μl of the test compound. In addition, SAC (100 μM) was administered to the non-ischaemic eye (normal) to see whether SAC has any adverse effects. In both cases, the paired normal eye was untreated. The rats were sacrificed and intracardially perfused with 0.9% normal saline (w/v). Then the rat retinas were removed, fixed with 4% (w/v) paraformaldehyde for 45 minutes and then transferred to 30% sucrose for cryosectioning. Sampling was carried out one or seven days after the sham-operation or induction of retinal ischaemia. […] The retinal sections were examined using a fluorescence microscope (Olympus BX61, Center Valley, Pa., USA).

On to `C=CCSC[C@H](N)C(=O)O` [SAC, S-allyl L-cysteine], for which the viability at 25 µM in the assay on RGC-5 cells (25 μM SAC 15-minute pre-incubation) amounted to 47.7 ± 4.53%. For the same compound, the viability at 50 µM in the assay on RGC-5 cells (50 μM SAC 15-minute pre-incubation) is 57.5 ± 3.48%. Also, the viability at 100 µM with RGC-5 cells (100 μM SAC 15-minute pre-incubation) stood at 70.2 ± 3.32%. For the same compound, in the assay with Thy-1 mRNA, the “Thy-1:β-actin mRNA ratio in the retina” value stood at 1.25±0.30. Further, the “ChAT immunopositive amacrine cell bodies per field” value in assay [1] (1 day after I/R, sham 39±3, vehicle 14±1) stood at 26±2 per field; in assay [1] (7 days after I/R, sham 38±3, vehicle 10±5) it was 24±5 per field.

A word on the viability: it is the share of living cells, or the viability signal relative to a control.
